Reference: patent US5990163A, “Selective modulation of processes mediated by retinoid X receptors, and compounds useful therefor” (The Salk Institute for Biological Studies, priority 1995, dated 1999)
“Also recorded” adds a separate entry of the source.

Tests used:
[1] = molecular target: T1, GAL4-hRARα (Homo sapiens, UniProt P10276); assay: Cotransfection with GAL4 chimeric receptor, TK-MH100×4-LUC reporter in CV-1 cells; format: cell-based; conditions: 10^-5 M ligand
T1 construct: CMX plasmid, CV-1 cells, TK-MH100x4-LUC
T1 sequence (P10276 203-462): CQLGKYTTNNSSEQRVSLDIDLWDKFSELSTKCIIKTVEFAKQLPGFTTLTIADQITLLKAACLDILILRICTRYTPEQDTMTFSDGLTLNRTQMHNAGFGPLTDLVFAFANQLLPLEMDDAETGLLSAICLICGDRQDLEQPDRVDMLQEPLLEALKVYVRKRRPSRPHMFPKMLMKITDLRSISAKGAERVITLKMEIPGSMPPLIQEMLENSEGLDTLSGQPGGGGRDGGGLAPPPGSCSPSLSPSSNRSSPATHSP
From the text: (§1) Thus, CV-1 cells were cotransfected with the expression plasmid CMX-GAL4-hRXRα, CMX-GAL4-hRARα, CMX-GAL4-RARβ or CMX-GAL4-RARγ and the reporter plasmid TK-MH100×4-LUC. The constructs consisted of the GAL4 DNA binding domain (amino acids 1-147; see Sadowski and Ptashne in Nucl. Acids Res. 17:7539 (1989)) ligated in frame to the ligand binding and C-terminal activation domains of hRARα (amino acids 203-462; see Giguere et al., in Nature 330:624 (1987), hRARβ (amino acids 178-448; see Brand et al., in Nature 332:850 (1988), RARγ (amino acids 187-454; see Ishikawa et al., in Mol. Endo. 4:837 (1990) and RXRα (amino acids 203-462; see Mangelsdorf et al., in Nature 345:224 (1990). These GAL4-receptor chimeras were then introduced into CMX expression vectors (see Umesono et al., in Cell 65:1255 (1991)). The GAL4-responsive reporter plasmid, TK-MH100×4-LUC, was constructed by inserting 4 copies of the yeast UASG enhancer (i.e., MH100; see Webster et al., in Cell 52:169 (1988)) into the luciferase reporter plasmid TK-LUC. CV-1 cells seeded into 48 well culture plates were co-transfected with 80 ng of the reporter plasmid TK-Mh100×4-LUC, 50 ng of CMX-βgal expression plasmid, and 80 ng of receptor expression plasmid (either CMX-GAL4 as a control, CMX-GAL4-hRARα, CMX-GAL4-hRARβ, CMX-GAL4-hRARγ or CMX-GAL4-hRXRα). […] Cotransfections, ligand addition and luciferase assays were performed as described in Example 3.
(§2) The above-described chimeric proteins can bind to a GAL4 upstream activation sequence (UASG) in the promoter of a luciferase reporter, but can only activate transcription in the presence of the hybrid receptor's ligand. The distinct advantage of using the GAL4-receptor system, instead of the wild-type receptors and response elements, is that the GAL4-hybrids provide a sensitive and effective means for assaying receptor/ligand interactions, even in the presence of the cell's endogenous wild-type receptors.

[2] = molecular target: T2, GAL4-hRARβ (Homo sapiens, UniProt P10826); assay: as above; format: cell-based; conditions: 10^-5 M ligand
T2 construct: CMX plasmid, CV-1 cells, TK-MH100x4-LUC
T2 sequence (P10826 185-455): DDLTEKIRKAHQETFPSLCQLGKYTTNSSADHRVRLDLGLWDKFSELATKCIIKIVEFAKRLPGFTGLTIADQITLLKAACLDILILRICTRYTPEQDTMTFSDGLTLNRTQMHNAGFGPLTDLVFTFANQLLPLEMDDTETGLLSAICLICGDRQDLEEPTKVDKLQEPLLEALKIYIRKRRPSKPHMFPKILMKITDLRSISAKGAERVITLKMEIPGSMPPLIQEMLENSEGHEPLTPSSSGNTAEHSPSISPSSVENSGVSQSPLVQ
From the text: as §1, §2

[3] = molecular target: T3, GAL4-hRARγ (Homo sapiens, UniProt P13631); assay: as above; format: cell-based; conditions: 10^-5 M ligand
T3 construct: CMX plasmid, CV-1 cells, TK-MH100x4-LUC
T3 sequence (P13631 187-454): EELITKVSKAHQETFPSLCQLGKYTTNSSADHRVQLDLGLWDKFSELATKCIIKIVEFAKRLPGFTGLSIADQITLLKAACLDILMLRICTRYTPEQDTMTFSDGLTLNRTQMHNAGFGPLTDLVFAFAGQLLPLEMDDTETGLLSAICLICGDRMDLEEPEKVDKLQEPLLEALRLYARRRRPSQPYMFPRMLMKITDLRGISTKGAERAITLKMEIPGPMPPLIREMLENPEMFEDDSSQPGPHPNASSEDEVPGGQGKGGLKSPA
From the text: as §1, §2

[4] = molecular target: T4, hRXRα (Homo sapiens, UniProt P19793); assay: Cotransfection assay in Schneider cells, RXR expression plasmid and ADH-CRBPII-LUC luciferase reporter; format: cell-based; conditions: for activation of RXR (transcription from the reporter construct), in words: Schneider cells, ADH-CRBPII-LUC
T4 sequence (P19793 1-462): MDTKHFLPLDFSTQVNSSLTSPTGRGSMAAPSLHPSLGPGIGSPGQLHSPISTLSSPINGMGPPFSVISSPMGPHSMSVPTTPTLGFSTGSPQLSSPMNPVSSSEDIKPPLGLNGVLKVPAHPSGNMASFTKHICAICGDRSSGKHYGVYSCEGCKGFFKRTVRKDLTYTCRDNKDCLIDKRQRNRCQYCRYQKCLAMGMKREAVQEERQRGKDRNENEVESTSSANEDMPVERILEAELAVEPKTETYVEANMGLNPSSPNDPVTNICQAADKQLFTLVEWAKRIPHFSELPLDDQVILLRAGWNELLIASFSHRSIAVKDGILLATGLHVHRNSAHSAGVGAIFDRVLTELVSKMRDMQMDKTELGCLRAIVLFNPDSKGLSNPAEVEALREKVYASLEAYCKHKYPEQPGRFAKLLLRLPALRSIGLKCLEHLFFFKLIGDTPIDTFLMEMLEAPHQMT
Procedure: Candidate ligands were initially tested in Schneider cells cotransfected with an RXR expression plasmid and a luciferase reporter plasmid containing an RXR specific response element.
Cell lysates were then assayed for luciferase activity, which is expressed as relative light units (RLU) and represents the mean of triplicate assays (±SEM) normalized to β-galactosidase as an internal control. […] After 24 hours, ligand was added to the transfected cells. Thirty six hours later, the cells were harvested and extracts prepared and assayed for enzyme activity as described by Heyman et al., supra, and Clayton, supra. Luciferase values were normalized for transfection and harvesting efficiency by measuring β-galactosidase activity, and the results reported as average relative light units (RLU) for at least two replicates.

[5] = molecular target: T5, GAL4-hRXRα (Homo sapiens, UniProt P19793); assay: Cotransfection with GAL4 chimeric receptor, TK-MH100×4-LUC reporter in CV-1 cells; format: cell-based; conditions: 10^-5 M ligand
T5 construct: CMX plasmid, CV-1 cells, TK-MH100x4-LUC
T5 sequence (P19793 203-462): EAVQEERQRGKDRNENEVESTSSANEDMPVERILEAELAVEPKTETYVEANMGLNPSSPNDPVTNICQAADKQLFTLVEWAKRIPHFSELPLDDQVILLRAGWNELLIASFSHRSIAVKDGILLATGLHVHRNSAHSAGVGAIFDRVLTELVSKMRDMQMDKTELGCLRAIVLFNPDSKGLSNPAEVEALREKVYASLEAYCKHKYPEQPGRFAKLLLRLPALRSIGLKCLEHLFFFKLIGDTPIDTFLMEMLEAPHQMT
From the text: as §1, §2

[6] = molecular target: T4, hRXRα; assay: Competitive ligand binding, competition for [3H]9cRA binding; conditions: 40 nM [3H]9cRA, increasing concentrations of unlabelled compound
Procedure: Binding analysis was performed as described by Boehm et al., in J. Med. Chem. 37:2930-2941 (1994). Compounds used in these studies were prepared according to Wecksler and Norman (Anal. Biochem. 92:314-323 (1979).

[7] = test system: RXR-alpha; assay: Expression of genes under the control of regulatory elements of apolipoprotein AI; format: cell-based
[8] = test system: mouse RXRγ; assay: Transactivation dose response, CRBPII-LUC reporter in Schneider and CV-1 cells; format: cell-based; conditions: Schneider cells and CV-1 cells
Procedure: (§3) Cell lysates were then assayed for luciferase activity, which is expressed as relative light units (RLU) and represents the mean of triplicate assays (±SEM) normalized to β-galactosidase as an internal control. Thus, Schneider cells in 6-well culture plates were co-transfected with 0.5 μg ADH-CRBPII-LUC, 0.5 μg A5C-βgal and 1 μg of receptor plasmid (either A5C-mRXRα, A5C-mRXRβ, A5C-mRXRγ or A5C-hRXRα) by the CaPO4 precipitation method, as described by Heyman et al., in Cell 68:397 (1992) and Clayton in Aspects of Terpenoid Chemistry and Biology, T. W. Goodwin, ed. (Academic Press, London) pp. 1-23 (1971). After 24 hours, ligand was added to the transfected cells. Thirty six hours later, the cells were harvested and extracts prepared and assayed for enzyme activity as described by Heyman et al., supra, and Clayton, supra. Luciferase values were normalized for transfection and harvesting efficiency by measuring β-galactosidase activity, and the results reported as average relative light units (RLU) for at least two replicates.
(§4) To further test the ability of methoprene acid to function as an RXR ligand, the transactivation properties of methoprene on all three RXR subtypes was investigated. FIG. 3 presents the dose responses of the three RXR subtypes to methoprene acid in insect Schneider cells (FIG. 3A), or mammalian CV-1 cells (FIG. 3B) cotransfected with expression plasmids for mouse RXRα, RXRβ, or RXRγ and the reporter plasmid ADH-CRBPII-LUC (for Schneider cells) or TK-CRBPII-LUC (for CV-1 cells).
(§5) Experiments in Schneider cells were conducted as described in Example 1. Experiments in CV-1 cells were conducted as follows. CV-1 cells were seeded into 48-well sulture dishes and co-transfected with 50 ng of TK-CRBPII-LUC reporter plasmid, 50 ng of CMX-βgal expression plasmid, and 25 ng of expression plasmid for receptor (either CMX-mRXRα, CMX-mRXRβ or CMX-mRXRγ) by the CaPO4 precipitation method, as described by Heyman et al., supra and Clayton supra. […] Luciferase activity was determined as described by Unsworth et al., in Life Sciences 15:1649 (1974).

[9] = test system: mouse RXRβ; assay: as above; format: cell-based; conditions: Schneider cells and CV-1 cells
Procedure: as §3, §4, §5

[10] = test system: mouse RXRα; assay: as above; format: cell-based; conditions: Schneider cells and CV-1 cells
Procedure: as §3, §4, §5

[11] = previous studies (Quistad et al.); a major product is methoprene acid; cited from earlier work
[12] = 36 h, read-out: induction of luciferase reporter above methanol control

Compound: CC1=C(/C=C/C(C)=C\C=C\C(C)=C\C(=O)O)C(C)(C)CCC1 [9cRA, 9-cis-retinoic acid, reference compound]
- activation of transcription with GAL4-RARα, in words [1]: can activate transcription
- activation of transcription with GAL4-RARβ, in words [2]: can activate transcription
- activation of transcription with GAL4-RARγ, in words [3]: can activate transcription

Compound: COC(=O)/C=C(\C)CC/C=C(\C)CCC1OC1(C)C (stereo not drawn) [JH III, methyl (2E,6E)-10,11-epoxy-3,7,11-trimethyl-2,6dodecadienoate, reference compound]
- activation of RXR (transcription from the reporter construct), in words [4]: do not activate RXR

Compound: C/C(=C\c1ccc(C(=O)O)cc1)c1ccc2c(c1)C(C)(C)CCC2(C)C [TTNPB, (E)-4-[2-(5,6,7,8-tetrahydro-5,5,8,8-tetramethyl-2-napthalenyl)-1-propenyl]benzoic acid, reference compound]
- activation of transcription with GAL4-RXR, in words [5]: exclusive response

Compound: CC(C)=CCC/C(C)=C/CC/C(C)=C/CO [farnesol, (2E,6E,10E)-3,7,11-trimethyl-2,6,10-dodecatrienol, reference compound]
- activation of RXR (transcription from the reporter construct), in words [4]: do not activate RXR

Compound: CC(/C=C/CC(C)CCCC(C)C)=C\C(=O)O (stereo not drawn) [hydroprene acid]
- competition for [3H]9cRA binding to RXRα, in words [6]: observed to bind RXR
- fold induction at 100 µM [4, 12]: 81

Compound: CCOC(=O)/C=C(C)/C=C/CC(C)CCCC(C)C (stereo not drawn) [hydroprene, ethyl (2E,4E)-3,7,11-trimethyl-2,4-dodecadienoate]
- competition for [3H]9cRA binding to RXRα, in words [6]: not
- activation of RXR (transcription from the reporter construct), in words [4]: activate RXR

Compound: COC(C)(C)CCCC(C)C/C=C/C(C)=C/C(=O)O (stereo not drawn) [methoprene acid]
- effect of RXR-alpha in the presence of ligand on expression of genes under apolipoprotein AI regulatory elements [7]: strong effect
- competition for [3H]9cRA binding to RXRα, in words [6]: competes well
- fold induction at 10 µM [4, 12]: 95
- activation of transcription with GAL4-RARα, in words [1]: specific for activation of only the GAL4-RXR
- activation of transcription with GAL4-RARβ, in words [2]: specific for activation of only the GAL4-RXR
- activation of transcription with GAL4-RARγ, in words [3]: specific for activation of only the GAL4-RXR
- activation of transcription with GAL4-RXR, in words [5]: specific for activation of only the GAL4-RXR
- response of RXRγ (transactivation), in words [8]: respond strongly
- response of RXRβ (transactivation), in words [9]: responds only weakly
- response of RXRα (transactivation), in words [10]: respond strongly

Compound: COC(C)(C)CCCC(C)C/C=C/C(C)=C/C(=O)OC(C)C (stereo not drawn) [methoprene, isopropyl (2E,4E)-11-methoxy-3,7,11-trimethyl-2,4-dodecadienoate]
- competition for [3H]9cRA binding to RXRα, in words [6]: unable to displace 9cRA binding at any concentration; also recorded: unable to competitively bind RXR at any concentration
- fold induction at 100 µM [4, 12]: 80
- activation of RXR (transcription from the reporter construct), in words [4]: activate RXR
- metabolism within cells [11]: metabolized within cells to several products
